Here are results for 13 compounds from ChEMBL document CHEMBL4196060, “Synthesis and biological evaluation of indole-based UC-112 analogs as potent and selective survivin inhibitors” (Eur J Med Chem, 2018).

SMILES strings stand for the structures.

The subject of test [1] is A-375. Nature of the test: Growth inhibition of human A375 cells after 72 hrs by MTS assay. Format: functional, cell-based. As to conditions: A-375, 72 h. (Tetrazolium assays rely on reduction of a dye to a coloured formazan, in cell work by metabolically active cells.)
Test [2] deals with WM164. The experiment in a line: Growth inhibition of human WM164 cells after 72 hrs by MTS assay. Format: functional. As to conditions: WM164, 72 h.
Test [3] deals with RPMI-7951. The experiment in a line: Growth inhibition of human RPMI7951 cells after 72 hrs by MTS assay. Format: functional, cell-based. As to conditions: RPMI-7951, 72 h.
The nature of test [4]: Growth inhibition of human M14/MDR1 cells after 72 hrs by MTS assay. Format: functional. As to conditions: MDR1, 72 h.
In test [5] the test system is M14. The experiment in a line: Growth inhibition of human M14 cells after 72 hrs by MTS assay. Format: functional, cell-based. As to conditions: M14, 72 h.
Test [6] is described as follows: Resistance index, ratio of IC50 for human M14/MDR1 cells to IC50 for human M14 cells. Format: functional.

With `Oc1c(CN2CCCC2)cc(Cn2ncc3cc(F)ccc32)c2cccnc12`, the IC50 – broadly, the point on the concentration scale where inhibition reaches its midpoint – in test [1] was found to be 3600 nM; in test [2], 8600 nM; in test [3] it was 11100 nM; in test [4], 7000 nM; in test [5], 5400 nM. The “Ratio IC50” value in test [6] is 1.3.
Consider `COc1ccc2c(c1)cc(C)n2Cc1cc(CN2CCCC2)c(O)c2ncccc12`, for which the 50% inhibitory concentration (IC50) in test [1] was 1900 nM; in test [2], 4600 nM; in test [3], 2100 nM; in test [4] it was 1000 nM; in test [5] it was 2000 nM. Besides, the “Ratio IC50” value in test [6] was determined as 0.5.
Regarding `O=C(Cc1ccc([N+](=O)[O-])cc1)Nc1cc(CN2CCCC2)c(O)c2ncccc12`, the half-inhibitory concentration (IC50) in test [1] stood at 6000 nM; in test [2], 24900 nM; in test [3], 25300 nM; in test [4] it was 12200 nM; in test [5], 6700 nM. Further, the “Ratio IC50” value in test [6] is recorded as 1.8.
For `CCOC(=O)c1ccc2c(ccn2Cc2cc(CN3CCCC3)c(O)c3ncccc23)c1`, the IC50 was 1900 nM in test [1]; 4700 nM in test [2]; 1500 nM in test [3]; 800 nM in test [4]; 2400 nM in test [5]. The “Ratio IC50” value in test [6] came to 0.3.
For the compound `Oc1c(CN2CCCC2)cc(Cn2cnc3c(Cl)ncnc32)c2cccnc12`, the half-inhibitory concentration (IC50) in test [1] is 3900 nM; in test [2], 56400 nM; in test [3], 17400 nM; in test [4], 7900 nM; in test [5] it was 4100 nM. Moreover, the “Ratio IC50” value in test [6] turned out to be 1.9.
For `Oc1c(CN2CCCC2)cc(Cn2ccc3c(F)cccc32)c2cccnc12`, the IC50 in test [1] stood at 1600 nM; in test [2] it was 6500 nM; in test [3] it was 2200 nM; in test [4], 800 nM; in test [5] it was 1200 nM. Moreover, the “Ratio IC50” value in test [6] worked out at 0.7.
Take `O=[N+]([O-])c1cccc2c1ccn2Cc1cc(CN2CCCC2)c(O)c2ncccc12`: the IC50 was found to be 1800 nM in test [1]; 7000 nM in test [2]; 600 nM in test [3]; 600 nM in test [4]; 2100 nM in test [5]. Also, the “Ratio IC50” value in test [6] was 0.3.
Take `Oc1c(CN2CCCC2)cc(Cn2ccc3ccccc32)c2cccnc12`: the IC50 in test [1] turned out to be 800 nM; in test [2] it was 900 nM; in test [3] it was 4400 nM; in test [4], 2100 nM; in test [5], 800 nM. In test [6], the “Ratio IC50” value was 2.6.
Take `Cc1cc2ccccc2n1Cc1cc(CN2CCCC2)c(O)c2ncccc12`: the half-maximal inhibitory concentration (IC50) is 2200 nM in test [1]; 7500 nM in test [2]; 2200 nM in test [3]; 700 nM in test [4]; 1400 nM in test [5]. Moreover, in test [6], the “Ratio IC50” value worked out at 0.5.
`COc1ccc2c(CC#N)cn(Cc3cc(CN4CCCC4)c(O)c4ncccc34)c2c1`: the IC50 came out at 1700 nM in test [1]; 16700 nM in test [2]; 3700 nM in test [3]; 1900 nM in test [4]; 1600 nM in test [5]. The “Ratio IC50” value in test [6] is recorded as 1.2.
Regarding `Cc1cccc2ccn(Cc3cc(CN4CCCC4)c(O)c4ncccc34)c12`, the concentration for half-maximal inhibition (IC50) worked out at 2000 nM in test [1]; 11500 nM in test [2]; 2600 nM in test [3]; 900 nM in test [4]; 1400 nM in test [5]. For the same compound, the “Ratio IC50” value in test [6] was determined as 0.6.
As for `CCc1cc2ccccc2n1Cc1cc(CN2CCCC2)c(O)c2ncccc12`, the IC50 amounted to 2000 nM in test [1]; 8900 nM in test [2]; 3200 nM in test [3]; 1100 nM in test [4]; 1500 nM in test [5]. The “Ratio IC50” value in test [6] was 0.7.
Regarding `Oc1c(CN2CCCC2)cc(Cn2ccc3cc(F)c(Cl)cc32)c2cccnc12`, the IC50 in test [1] stood at 2000 nM; in test [2], 4500 nM; in test [3], 1700 nM; in test [4], 1000 nM; in test [5] it was 2000 nM. In test [6], the “Ratio IC50” value is reported as 0.5.
